Assay results as given in patent US20240382489A1, “LIQUID PHARMACEUTICAL COMPOSITION” (Verona Pharma PLC, priority 2023, published 2024).

Test system: patients aged 40-80 years with moderate to severe COPD
Experiment: Clinical study of nebulised ensifentrine vs placebo in COPD: lung function (FEV1)
Assay type: in vivo, human
Conditions: 3 mg BID by nebuliser
Method: A clinical study was conducted to determine the efficacy of ensifentrine in treating COPD compared with placebo. Ensifentrine was administered by nebuliser at a dose of 3 mg twice daily (BID) for 24 weeks. The study was a multi-centre, randomized, double-blind, parallel-group, placebo-controlled trial with around 800 patients and 5:3 randomization.
The study population included patients aged 40-80 years with moderate to severe COPD (FEV130%-70% p.n., FEV1/forced vital capacity (FVC) ratio<0.7, with mMRC≥2). The randomization stratified (a) the use of stable background maintenance LAMA or LABA therapy use (approx. 50%. yes or no) and (b) cigarette smoking (current or former). Inhaled corticosteroid (ICS) maintenance therapy was permitted in up to 20% of patients under certain provisions.
The primary endpoint of the study was change from baseline in average FEV1 area under the curve (AUC)0-12 h post-dose at week 12. Secondary endpoints of the study included: peak FEV1 over 4 hours post-dose at Week 12; morning trough FEV1 at Week 12; and other endpoints including moderate/severe COPD exacerbations frequency over 24 Weeks.
Baseline FEV1 is the mean of the two measurements taken before study medication on the day of first dosing, i.e., ≤40 minutes and just prior to dosing, both pre-dose on day 1. […]

COc1cc2c(cc1OC)-c1c/c(=N\c3c(C)cc(C)cc3C)n(CCNC(N)=O)c(=O)n1CC2 [Ensifentrine, N-(2-{(2E)-9,10-dimethoxy-4-oxo-2-[(2,4,6-trimethylphenyl)imino]-6,7-dihydro-2H-pyrimido[6,1-a]isoquinolin-3(4H)-yl}ethyl)urea]
improvement in lung function in all subgroups of COPD patients: statistically significant improvement in lung function
